Measurements reported in patent US20030104507A1, “Method for detection of ATP” (priority 2001, published 2003).

Key:
LucPpy = biological target: T1, LucPpy (Photinus pyralis, UniProt P08659); test: Stability of reagent composition with LucPpy and detergent (RT, pH 7.0); assay type: biochemical; details: LucPpy
T1 construct: purchased Promega E170A
Procedure, shortened: (§1)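 Reagent with 50 μg/ml luciferase, luciferin, MgSO4, buffer and detergent at varying concentrations held at about 23° C; enzyme added just before first read. At timepoints, aliquots mixed 1:1 with media containing ATP and luminescence read immediately (0.5 s/well, triplicate); reaction half-lives and percent of original luminescence derived.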

[1] = Precipitation of detergent in reagent composition samples; assay type: physicochemical
LucPpe2m146 = test: Stability of reagent composition with LucPpe2m146 and detergent (RT, pH 7.0); assay type: biochemical, Photuris pennsylvanica
Procedure, shortened: as §1

C[C@H](CCC(=O)[O-])[C@H]1CC[C@H]2[C@@H]3CC[C@@H]4C[C@H](O)CC[C@]4(C)[C@H]3C[C@H](O)[C@]12C.[Na+] [Deoxycholate, sodium deoxycholate]
Average Relative Light Units (LucPpy; 0.02%, 0.75 min (head r32)): 3199.250 rlu | Percent of Luminescence Remaining (LucPpy; 0.02%, 0.75 min (times of Table I r32)): 100.00% | Average Relative Light Units (LucPpy; 0.02%, 38 min (head r32)): 2844.010 rlu | Percent of Luminescence Remaining (LucPpy; 0.02%, 38 min (times of Table I r32)): 88.90% | Average Relative Light Units (LucPpy; 0.02%, 70 min (head r32)): 2626.260 rlu | Percent of Luminescence Remaining (LucPpy; 0.02%, 70 min (times of Table I r32)): 82.09% | Average Relative Light Units (LucPpy; 0.02%, 94 min (head r32)): 2496.570 rlu | Percent of Luminescence Remaining (LucPpy; 0.02%, 94 min (times of Table I r32)): 78.04% | Average Relative Light Units (LucPpy; 0.02%, 122 min (head r32)): 2314.910 rlu | Percent of Luminescence Remaining (LucPpy; 0.02%, 122 min (times of Table I r32)): 72.3% | Average Relative Light Units (LucPpy; 0.1%, 0.75 min (head r18)): 19.771 rlu | Percent of Luminescence Remaining (LucPpy; 0.1%, 0.75 min (times of Table I r18)): 100.00% | Average Relative Light Units (LucPpy; 0.1%, 10 min (head r18)): 0.180 rlu | Percent of Luminescence Remaining (LucPpy; 0.1%, 10 min (times of Table I r18)): 0.91% | Average Relative Light Units (LucPpy; 0.1%, 36 min (head r18)): 0.026 rlu | Percent of Luminescence Remaining (LucPpy; 0.1%, 36 min (times of Table I r18)): 0.13% | Average Relative Light Units (LucPpy; 0.5%, 0.75 min (head r5)): 4.801 rlu | Percent of Luminescence Remaining (LucPpy; 0.5%, 0.75 min (times of Table I r5)): 100.00% | Average Relative Light Units (LucPpy; 0.5%, 21 min (head r5)): 0.012 rlu | Percent of Luminescence Remaining (LucPpy; 0.5%, 21 min (times of Table I r5)): 0.25% | Average Relative Light Units (LucPpy; 0.5%, 39 min (head r5)): 0.007 rlu | Percent of Luminescence Remaining (LucPpy; 0.5%, 39 min (times of Table I r5)): 0.15% | precipitation in the samples ([1]; 0.1% deoxycholate): slight precipitation | precipitation in the samples ([1]; 0.5% deoxycholate): substantial precipitation | Average Relative Light Units (LucPpe2m146; LucPpe2m146, 0.02%, 1.0 min (head r67)): 24307.30 rlu | Percent of Luminescence Remaining (LucPpe2m146; LucPpe2m146, 0.02%, 1.0 min (times of Table I r67)): 100.00% | Average Relative Light Units (LucPpe2m146; LucPpe2m146, 0.02%, 34 min (head r67)): 24639.00 rlu | Percent of Luminescence Remaining (LucPpe2m146; LucPpe2m146, 0.02%, 34 min (times of Table I r67)): 101.36% | Average Relative Light Units (LucPpe2m146; LucPpe2m146, 0.02%, 65 min (head r67)): 24717.97 rlu | Percent of Luminescence Remaining (LucPpe2m146; LucPpe2m146, 0.02%, 65 min (times of Table I r67)): 101.69% | Average Relative Light Units (LucPpe2m146; LucPpe2m146, 0.02%, 115 min (head r67)): 23158.37 rlu | Percent of Luminescence Remaining (LucPpe2m146; LucPpe2m146, 0.02%, 115 min (times of Table I r67)): 95.27% | Average Relative Light Units (LucPpe2m146; LucPpe2m146, 0.02%, 175 min (head r67)): 24655.43 rlu | Percent of Luminescence Remaining (LucPpe2m146; LucPpe2m146, 0.02%, 175 min (times of Table I r67)): 101.43% | Average Relative Light Units (LucPpe2m146; LucPpe2m146, 0.02%, 238 min (head r67)): 24320.6 rlu | Percent of Luminescence Remaining (LucPpe2m146; LucPpe2m146, 0.02%, 238 min (times of Table I r67)): 100.05% | Average Relative Light Units (LucPpe2m146; LucPpe2m146, 0.02%, 286 min (head r67)): 24303.9 rlu | Percent of Luminescence Remaining (LucPpe2m146; LucPpe2m146, 0.02%, 286 min (times of Table I r67)): 99.99% | Average Relative Light Units (LucPpe2m146; LucPpe2m146, 0.1%, 1.0 min (head r54)): 5150.43 rlu | Percent of Luminescence Remaining (LucPpe2m146; LucPpe2m146, 0.1%, 1.0 min (times of Table I r54)): 100.00% | Average Relative Light Units (LucPpe2m146; LucPpe2m146, 0.1%, 34 min (head r54)): 5031.12 rlu | Percent of Luminescence Remaining (LucPpe2m146; LucPpe2m146, 0.1%, 34 min (times of Table I r54)): 97.68% | Average Relative Light Units (LucPpe2m146; LucPpe2m146, 0.1%, 65 min (head r54)): 6855.67 rlu | Percent of Luminescence Remaining (LucPpe2m146; LucPpe2m146, 0.1%, 65 min (times of Table I r54)): 133.11% | Average Relative Light Units (LucPpe2m146; LucPpe2m146, 0.1%, 115 min (head r54)): 6340.45 rlu | Percent of Luminescence Remaining (LucPpe2m146; LucPpe2m146, 0.1%, 115 min (times of Table I r54)): 123.11% | Average Relative Light Units (LucPpe2m146; LucPpe2m146, 0.1%, 175 min (head r54)): 7347.09 rlu | Percent of Luminescence Remaining (LucPpe2m146; LucPpe2m146, 0.1%, 175 min (times of Table I r54)): 142.65% | Average Relative Light Units (LucPpe2m146; LucPpe2m146, 0.1%, 238 min (head r54)): 6801.23 rlu | Percent of Luminescence Remaining (LucPpe2m146; LucPpe2m146, 0.1%, 238 min (times of Table I r54)): 132.05% | Average Relative Light Units (LucPpe2m146; LucPpe2m146, 0.1%, 286 min (head r54)): 7472.54 rlu | Percent of Luminescence Remaining (LucPpe2m146; LucPpe2m146, 0.1%, 286 min (times of Table I r54)): 145.09% | Average Relative Light Units (LucPpe2m146; LucPpe2m146, 0.5%, 15 min (head r41)): 45.977 rlu | Percent of Luminescence Remaining (LucPpe2m146; LucPpe2m146, 0.5%, 15 min (times of Table I r41)): 100.00% | Average Relative Light Units (LucPpe2m146; LucPpe2m146, 0.5%, 72 min (head r41)): 229.874 rlu | Percent of Luminescence Remaining (LucPpe2m146; LucPpe2m146, 0.5%, 72 min (times of Table I r41)): 499.98% | Average Relative Light Units (LucPpe2m146; LucPpe2m146, 0.5%, 124 min (head r41)): 2059.397 rlu | Percent of Luminescence Remaining (LucPpe2m146; LucPpe2m146, 0.5%, 124 min (times of Table I r41)): 4479.22% | Average Relative Light Units (LucPpe2m146; LucPpe2m146, 0.5%, 190 min (head r41)): 1414.397 rlu | Percent of Luminescence Remaining (LucPpe2m146; LucPpe2m146, 0.5%, 190 min (times of Table I r41)): 3076.34% | Average Relative Light Units (LucPpe2m146; LucPpe2m146, 0.5%, 251 min (head r41)): 1342.963 rlu | Percent of Luminescence Remaining (LucPpe2m146; LucPpe2m146, 0.5%, 251 min (times of Table I r41)): 2920.97%
